In paper PMC10974505, “Evaluation of the Antifungal and Antiproliferative Properties of the Lichen Roccella tinctoria DC. Extracts and Main Components” (Pharmaceutics, 2024):
Converted amounts (≈) assume the structure as drawn.

Experiments:
[1] = MTT tolerability assay, noncancerous H69 cholangiocytes; type: cell-based, human; details: human, SV40-immortalized H69 cholangiocytes (noncancerous); 50 µg/mL; read-out: lowering of H69 cell viability
Description: (§1) A549 cells were kindly provided by Prof. Lucia Nencioni (Dept. of Public Health and Infectious Diseases, Sapienza University of Rome, Rome, Italy), while Mz-ChA-1 and H69 cells were donated by Prof. Romina […]. of Anatomical, Histological, Forensic and Orthopedic Sciences, Sapienza University of Rome, Rome, Italy) and Prof. […] (Indiana University School of Medicine, Indianapolis, IN, USA). BEAS-2B cells were provided by Sigma-Aldrich (St. Louis, MO, USA). […] The growth media were replaced twice per week; subcultures were prepared when the cells achieved approximately 80% confluency. […] In brief, 2 × 10^4 cells/well were cultured into 96-well microplates for 24 h. Then, they were subjected to a treatment with progressive concentrations of the tested extracts for further 24 h. […] The effect of the treatments on the cell viability was expressed as percentage of the vehicle control. […] In addition, tolerability studies in human epithelial BEAS-2B bronchial cells and H69 cholangiocytes were performed in order to establish the possible selective cytotoxicity of the tested samples to cancer cells.

[2] = tested on: H69 cholangiocytes; assay: as above; type: cell-based, human; details: MTT, 24 h treatment, confidence limits in brackets, ne 1 = not evaluable, highest inhibitory effect lower than 80%, ne 2 = not evaluable, lower inhibitory effect higher than 40%; for IC50: Homo sapiens, read-out: IC50 [µg/mL] (CL) H69
Description: as §1

[3] = tested on: HeLa (cervical cancer cell line); parameters: method as in doi:10.32508/stdjns.v2i5.779; details: 100 µg/mL, isolated from Roccella sinensis; cited from earlier work
[4] = tested on: MCF-7 (breast cancer cell line); parameters: method as in doi:10.32508/stdjns.v2i5.779; details: MCF-7, 100 µg/mL; isolated from Roccella sinensis; cited from earlier work
[5] = tested on: Mz-ChA-1 cholangiocarcinoma cells; assay: MTT cytotoxicity assay, Mz-ChA-1 cholangiocarcinoma cells; type: cell-based, human; details: for cytotoxicity at the highest concentration tested: Mz-ChA-1 cells, 500 µg/mL
Description: as §1

[6] = tested on: C. albicans ATCC 10231; assay: Galleria mellonella survival assay (larvae infected with C. albicans); type: in vivo
Procedure: The survival assay was carried out as described by Cairone and colleagues. G. mellonella larvae weighed 0.3 ± 0.03 g and were obtained from Todaro Sport (Rome, Italy). […] Three control groups were used, one with no treatment applied, one pierced and inoculated with sterile saline solution, and one treated with C. albicans suspension. The larvae were subsequently placed in an incubator set at 37 °C and observed for 120 h. […] Each trial was replicated three times, and the outcomes were documented as the survival percentage.
G. mellonella larvae as an in vivo model were chosen due to the similarities between their immunity system and the mammalian one. Furthermore, G. mellonella larvae provide a well-established in vivo model known for its ease of handling and utilization. They are extensively employed to assess the antimicrobial efficacy of both chemical and natural compounds, aligning with the ethical guidelines of the 3Rs (Replacement, Reduction, and Refinement) in animal research.

[7] = tested on: C. albicans biofilm; assay: Anti-Candida biofilm formation, 24 h (CV assay); type: cell-based, Candida albicans; details: concentration not given
Procedure: Presterilized, polystyrene, flat-bottom 48-well microtiter plates were used to investigate anti-Candida adhesion property of the extracts and the compounds [47, 48]. […] After that time, the cell suspensions were aspirated, and each well was washed twice with PBS to remove loosely adherent cells. Thus, CV assay was used to quantitatively study Candida adhesion (90 min) and early biofilm formation (24 h). The biomass was measured at 590 nm using a microplate reader.
(§2) Candida adhesion is followed by the colonization and formation of the biofilm, which is a community of cells with the ability to secrete the extracellular matrix (ECM). Biofilm-characterized infections are the most difficult to treat, and preventing biofilm formation could be of major importance. An anti-Candida biofilm formation assay was conducted after 24 h and 48 h of biofilm incubation, and the total biomass was evaluated using the CV assay.

[8] = tested on: C. albicans planktonic cells; assay: Antifungal susceptibility test (broth microdilution), planktonic cells; type: cell-based, Candida albicans ATCC 10231; details: for MIC50 / MIC90 / MIC: Candida albicans; for MIC50: read-out: GM MIC50; for MIC90: minimum inhibitory concentration of 90% fungal growth, read-out: GM MIC90; for MIC: minimum inhibitory concentration of 100% fungal growth, read-out: GM MIC100
Procedure: Candida albicans ATCC 10231 was obtained from the American Type Culture Collection (ATCC, Rockville, MD, USA). The antifungal effects of the isolated compounds and of the extracts against C. albicans ATCC 10231 were measured using the broth microdilution method following the standardized methods for yeast. C. albicans was cultured on Sabouraud dextrose agar (Sigma Aldrich, St. Louis, MO, USA) at 35 °C for 24 h. The final concentration of the inoculum was 2500 cells/mL. The extracts and the compounds were firstly dissolved in DMSO and then diluted at least 100-times with RPMI-1640 medium buffered with MOPS (4-morpholinepropanesulfonic acid). […] The minimal inhibitory concentration (MIC) was calculated by comparison of the growth in each well with that of the drug-free control after 24 h. Each experiment was conducted in triplicate and replicated at least three times on different dates.
The antifungal activity of extracts and isolated compounds against C. albicans planktonic cells was examined following the standardized broth microdilution method for yeasts (CLSI M27-A3).

[9] = tested on: different fungal strains including C. albicans; parameters: method as in PMID 30732479; details: cited from earlier work
[10] = tested on: HepG2 (liver hepatocellular carcinoma cell line); parameters: method as in doi:10.32508/stdjns.v2i5.779; details: HepG2, 100 µg/mL; isolated from Roccella sinensis; cited from earlier work
[11] = tested on: A549 lung cancer cells; assay: MTT cytotoxicity assay, A549 lung cancer cells; type: cell-based, human; details: for cytotoxicity at the highest concentration tested: A549 cells, 500 µg/mL
Description: as §1

[12] = tested on: NCI-H460 (human lung cancer cell line); parameters: method as in doi:10.32508/stdjns.v2i5.779; details: NCI-H460, 100 µg/mL; isolated from Roccella sinensis; cited from earlier work
[13] = tested on: BEAS-2B bronchial cells; assay: MTT tolerability assay, noncancerous BEAS-2B bronchial cells; type: cell-based, human; details: for inhibition of BEAS-2B cell viability: 50 µg/mL; for IC50: Homo sapiens, BEAS-2B, read-out: IC50 [µg/mL] (CL) BEAS-2B
Description: as §1

[14] = tested on: HCT-116 colon cancer cells; parameters: method as in PMID 35190352; details: cited from earlier work
[15] = tested on: C. albicans biofilm; assay: Anti-Candida biofilm formation, 48 h (CV assay); type: cell-based; details: 512 μg/mL
Procedure: Candida biofilm was established on flat-bottomed, 48-well microtiter plates, following previous protocols with minor modifications. […] Plates were then incubated for 48 h at 37 °C. After biofilm formation, the medium was aspirated, and non-adherent cells were removed by washing twice with phosphate-buffered saline (PBS). C. albicans biomass was quantified using CV assay.
as §2

[16] = tested on: Alternaria solani; parameters: method as in doi:10.4038/jnsfsr.v40i1.4167; details: 100 µg/mL; cited from earlier work
[17] = tested on: Fusarium oxysporum; parameters: method as in doi:10.4038/jnsfsr.v40i1.4167; details: 100 µg/mL; cited from earlier work
[18] = MTT, 24 h treatment, confidence limits in brackets, ne 1 = not evaluable, highest inhibitory effect lower than 80%, ne 2 = not evaluable, lower inhibitory effect higher than 40%
[19] = geometric mean, minimum inhibitory concentration of 50% fungal growth, 24 h

Structure (SMILES)	MIC50 [8, 19] [µg/mL]	MIC90 ([8]; geometric mean, 24 h) [µg/mL]	MIC ([8]; geometric mean, 24 h) [µg/mL]	cytotoxicity at 24 h, 50 µg/mL [1] [%]	IC50 [2] [µg/mL]	IC50 [µg/mL] (CL) Mz-ChA-1 [5, 18]	cytotoxicity at the highest concentration tested [5]	cytotoxicity at the highest concentration tested [11]	IC50 [µg/mL] (CL) A549 [11, 18]	inhibition of BEAS-2B cell viability [13]	IC50 [13, 18] [µg/mL]	also measured
Cc1cc(O)cc(O)c1C(=O)OCC(O)C(O)CO (centres unmarked) [Compound 3, montagnetol]	–	–	–	–	–	–	–	–	–	–	–	melting point: 158 to 160 °C
Cc1cc(OC(=O)c2c(C)cc(O)cc2O)cc(O)c1C(=O)O [lecanoric acid]	–	–	–	–	–	–	–	–	–	–	–	effect on HCT-116 cells [14]: affected the cell viability and colony formation, and it induced a cell cycle block
COc1cccc2c1C(=O)c1c(O)c3c(c(O)c1C2=O)C[C@@](O)(C(=O)CO)C[C@@H]3O[C@H]1C[C@H](N)[C@H](O)[C@H](C)O1 [Doxorubicin, doxorubicin, reference compound]	–	–	–	–	15.7 (≈ 28.9 µM)	–	–	–	–	–	4.1 (≈ 7.54 µM)	IC50 ([5]; Homo sapiens, MTT, 24 h treatment, confidence limits in brackets, ne 1 = not evaluable, highest inhibitory effect lower than 80%, ne 2 = not evaluable, lower inhibitory effect higher than 40%, read-out: IC50 [µg/mL] (CL) Mz-ChA-1): 24.5 µg/mL (≈ 45.1 µM); IC50 ([11]; Homo sapiens, A549, MTT, 24 h treatment, confidence limits in brackets, ne 1 = not evaluable, highest inhibitory effect lower than 80%, ne 2 = not evaluable, lower inhibitory effect higher than 40%, read-out: IC50 [µg/mL] (CL) A549): 17.3 µg/mL (≈ 31.8 µM)

Now from value to molecule, other results behind:

MIC50 [8, 19] [µg/mL]	MIC90 ([8]; geometric mean, 24 h) [µg/mL]	MIC ([8]; geometric mean, 24 h) [µg/mL]	Structure (SMILES)	cytotoxicity at 24 h, 50 µg/mL [1] [%]	IC50 [2] [µg/mL]	IC50 [µg/mL] (CL) Mz-ChA-1 [5, 18]	cytotoxicity at the highest concentration tested [5]	cytotoxicity at the highest concentration tested [11]	IC50 [µg/mL] (CL) A549 [11, 18]	inhibition of BEAS-2B cell viability [13]	IC50 [13, 18] [µg/mL]	also measured
> 128	> 128	> 128	Cc1cc(OC(=O)c2c(C)cc(O)cc2O)cc(O)c1C(=O)OCC(O)C(O)CO (centres unmarked) [Compound 1, erythrin]	~40	138 (≈ 327 µM)	ne ^1	at least 60%	at least 60%	ne ^1	at least 40%	–	toxicity [3]: nontoxic; toxicity [4]: nontoxic; infected larvae mortality rate ([6]; 256 μg/mL (10 μL), control group mortality 90%): 20%; percent rate of inhibition of biofilm formation [7]: lower than 40%; activity against the planktonic growth of C. albicans ([8]; at the highest concentration (512 μg/mL)): no activity; antifungal activity [9]: not shown any antifungal activity; toxicity [10]: nontoxic; toxicity [12]: nontoxic; IC50 [µg/mL] (CL) BEAS-2B [13, 18]: ne ^2
87 (≈ 478 µM)	> 128	> 128	COC(=O)c1c(C)cc(O)cc1O [Compound 2, methyl orsellinate]	60	–	ne ^1	lower than 50%	lower than 50%	ne ^1	at least 40%	103 (≈ 564 µM)	IC50 [µg/mL] (CL) H69 [2]: ne ^2; inhibition at 512 µg/mL [15]: 72%; inhibition percentage [16]: 58.41%; larvae survival rate ([6]; 512 μg/mL (10 μL), after 5 days, infected control survival 10%): 50%; GM MIC50 [8, 19]: 87 µg/mL; inhibition percentage [17]: 67.39%
